# From patent US9988429B2, “Glucagon analogues” (Zealand Pharma A/S, priority 2013, dated 2018)
# Starred links: 1 amine or outer side, 2 acyl side, 3 side chain; linkers in the order of their positions; H or OH if unused. Non-standard residues stand in square brackets, D forms with d. Residues, ends and D or L forms follow the SMILES beside them. Groups on a side chain read outwards from the residue. *: point of attachment. γGlu = O=C(O)[C@H](CCC(=O)[*:2])N[*:1]; Palmitoyl = CCCCCCCCCCCCCCCC(=O)*; Ac3c = NC1(C(=O)O)CC1
# Biological target: T1, human glucagon-like peptide 1 receptor (GLP-1R) (Homo sapiens, UniProt P43220)
# T1 construct: expressed in transfected cells
# T1 sequence (P43220 24-463): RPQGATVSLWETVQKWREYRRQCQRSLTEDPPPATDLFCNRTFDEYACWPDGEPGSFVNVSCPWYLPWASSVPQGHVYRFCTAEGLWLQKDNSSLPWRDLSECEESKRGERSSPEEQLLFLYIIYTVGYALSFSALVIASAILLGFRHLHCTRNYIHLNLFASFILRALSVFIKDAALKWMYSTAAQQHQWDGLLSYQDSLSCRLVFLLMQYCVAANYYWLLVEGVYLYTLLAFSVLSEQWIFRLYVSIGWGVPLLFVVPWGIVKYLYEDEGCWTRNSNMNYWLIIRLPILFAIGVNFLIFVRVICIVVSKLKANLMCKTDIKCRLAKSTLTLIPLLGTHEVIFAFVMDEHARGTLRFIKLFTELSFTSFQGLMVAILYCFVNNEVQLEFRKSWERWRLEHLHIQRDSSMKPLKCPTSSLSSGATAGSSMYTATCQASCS
# Experiment: GLP-1 receptor efficacy assay (cAMP AlphaScreen, CHO cells)
# Type: cell-based
# Settings: EC50 [GLP-1R] / EC50 [Glucagon-R], human receptors in CHO-K1
# Description: The mammalian expression vectors encoding the Glucagon-R or the GLP-1-R were transfected into Chinese hamster ovary (CHO) cells by the Attractene method. Stably expressing clones were obtained by Zeocin selection (250 μg/mL) upon limited dilution of cells resistant to the selection pressure. […] One Glucagon-R expressing clone and one GLP-1-R expressing clone were chosen for compound profiling.
# CHO cells expressing the human Glucagon-R, or human GLP-1-R were seeded 24 hours prior to the assay at 30,000 cells per well in 96-well microtiter plates in culture in 100 μl growth medium. On the day of analysis, growth medium was removed and the cells were washed once with 200 μl of assay buffer (Krebs-Ringer-buffer—KRBH). The buffer was removed and the cells were incubated for 15 min at room temperature in 10 μl KRBH (KRBH+10 mM HEPES, 5 mM NaHCO3, 0.1% (V/V) BSA) with 0.1 mM IBMX in deionized water containing increasing concentrations of test peptides. The reaction was stopped by the addition of lysis buffer (0.1% w/v BSA, 5 mM HEPES, 0.3% v/v Tween-20). After cell lysis for 10 min at room temperature, lysates were transferred to 384-well plates and 10 μl of acceptor/donorbead mixture as contained in the AlphaScreen™ cAMP Functional Assay Kit was added. After one hour of incubation at room temperature in the dark, the cAMP content was determined applying the AlphaScreen™ cAMP Functional Assay Kit from Perkin-Elmer according to manufacturer instructions. […] The GLP-1/glucagon ratio is calculated as defined earlier.
row,SMILES,Ratio GLP-1/Glucagon
1,CCCCCCCCCCCCCCCC(=O)N[C@@H](CCC(=O)NCCCC[C@H](NC(=O)[C@H](CO)NC(=O)[C@H](CC(=O)O)NC(=O)[C@H](CC(C)C)NC(=O)[C@H](Cc1ccc(O)cc1)NC(=O)[C@H](CCCCN)NC(=O)[C@H](CO)NC(=O)[C@H](Cc1ccc(O)cc1)NC(=O)[C@H](CC(=O)O)NC(=O)[C@H](CO)NC(=O)[C@@H](NC(=O)[C@H](Cc1ccccc1)NC(=O)[C@@H](NC(=O)CNC(=O)[C@H](CCC(N)=O)NC(=O)[C@H](CO)N(C)C(=O)[C@@H](N)Cc1c[nH]cn1)[C@@H](C)O)[C@@H](C)O)C(=O)N[C@@H](C)C(=O)N[C@@H](C)C(=O)N[C@@H](Cc1c[nH]cn1)C(=O)N[C@@H](CC(=O)O)C(=O)N[C@@H](Cc1ccccc1)C(=O)N[C@H](C(=O)N[C@@H](CCC(=O)O)C(=O)N[C@@H](Cc1c[nH]c2ccccc12)C(=O)N[C@@H](CC(C)C)C(=O)N[C@@H](CC(C)C)C(=O)N[C@@H](CO)C(=O)N[C@@H](C)C(N)=O)C(C)C)C(=O)O [Compound 2],3.83
2,CCCCCCCCCCCCCCCC(=O)N[C@@H](CCC(=O)NCCCC[C@H](NC(=O)[C@H](CCC(=O)O)NC(=O)[C@H](CC(=O)O)NC(=O)[C@H](CC(C)C)NC(=O)[C@H](Cc1ccc(O)cc1)NC(=O)[C@H](CCCCN)NC(=O)[C@H](CO)NC(=O)[C@H](Cc1ccc(O)cc1)NC(=O)[C@H](CC(=O)O)NC(=O)[C@H](CO)NC(=O)[C@@H](NC(=O)[C@H](Cc1ccccc1)NC(=O)[C@@H](NC(=O)CNC(=O)[C@H](CCC(N)=O)NC(=O)[C@@H]1CCCN1C(=O)[C@@H](N)Cc1c[nH]cn1)[C@@H](C)O)[C@@H](C)O)C(=O)N[C@@H](C)C(=O)N[C@@H](C)C(=O)N[C@@H](CCCCN)C(=O)N[C@@H](CC(=O)O)C(=O)N[C@@H](Cc1ccccc1)C(=O)N[C@H](C(=O)N[C@@H](CCC(=O)O)C(=O)N[C@@H](Cc1c[nH]c2ccccc12)C(=O)N[C@@H](CC(C)C)C(=O)N[C@@H](CCC(=O)O)C(=O)N[C@@H](CO)C(=O)N[C@@H](C)C(N)=O)[C@@H](C)CC)C(=O)O [Compound 13],0.07
3,CCCCCCCCCCCCCCCC(=O)N[C@@H](CCC(=O)NCCCC[C@H](NC(=O)[C@H](CCC(=O)O)NC(=O)[C@H](CC(=O)O)NC(=O)[C@H](CC(C)C)NC(=O)[C@H](Cc1ccc(O)cc1)NC(=O)[C@H](CCCCN)NC(=O)[C@H](CO)NC(=O)[C@H](Cc1ccc(O)cc1)NC(=O)[C@H](CC(=O)O)NC(=O)[C@H](CO)NC(=O)[C@@H](NC(=O)[C@H](Cc1ccccc1)NC(=O)[C@@H](NC(=O)CNC(=O)[C@H](CCC(N)=O)NC(=O)C1(NC(=O)[C@@H](N)Cc2c[nH]cn2)CCC1)[C@@H](C)O)[C@@H](C)O)C(=O)N[C@@H](C)C(=O)N[C@@H](C)C(=O)N[C@@H](CCCCN)C(=O)N[C@@H](CC(=O)O)C(=O)N[C@@H](Cc1ccccc1)C(=O)N[C@H](C(=O)N[C@@H](CCC(=O)O)C(=O)N[C@@H](Cc1c[nH]c2ccccc12)C(=O)N[C@@H](CC(C)C)C(=O)N[C@@H](CCC(=O)O)C(=O)N[C@@H](CO)C(=O)N[C@@H](C)C(N)=O)[C@@H](C)CC)C(=O)O [Compound 14],0.04

# Second part, the compound after the results:
row,Ratio GLP-1/Glucagon,SMILES
1,2.26,CCCCCCCCCCCCCCCC(=O)N[C@@H](CCC(=O)NCCCC[C@H](NC(=O)[C@H](CO)NC(=O)[C@H](CC(=O)O)NC(=O)[C@H](CC(C)C)NC(=O)[C@H](Cc1ccc(O)cc1)NC(=O)[C@H](CCCCN)NC(=O)[C@H](CO)NC(=O)[C@H](Cc1ccc(O)cc1)NC(=O)[C@H](CC(=O)O)NC(=O)[C@H](CO)NC(=O)[C@@H](NC(=O)[C@H](Cc1ccccc1)NC(=O)[C@@H](NC(=O)CNC(=O)[C@H](CCC(N)=O)NC(=O)[C@H](C)NC(=O)[C@@H](N)Cc1c[nH]cn1)[C@@H](C)O)[C@@H](C)O)C(=O)N[C@@H](C)C(=O)N[C@@H](C)C(=O)N[C@@H](Cc1c[nH]cn1)C(=O)N[C@@H](CC(=O)O)C(=O)N[C@@H](Cc1ccccc1)C(=O)N[C@H](C(=O)N[C@@H](CCC(=O)O)C(=O)N[C@@H](Cc1c[nH]c2ccccc12)C(=O)N[C@@H](CC(C)C)C(=O)N[C@@H](CC(C)C)C(=O)N[C@@H](CO)C(=O)N[C@@H](C)C(N)=O)C(C)C)C(=O)O [Compound 1]
2,0.75,CCCCCCCCCCCCCCCC(=O)N[C@@H](CCC(=O)NCCCC[C@H](NC(=O)[C@H](CO)NC(=O)[C@H](CC(=O)O)NC(=O)[C@H](CC(C)C)NC(=O)[C@H](Cc1ccc(O)cc1)NC(=O)[C@H](CCCCN)NC(=O)[C@H](CO)NC(=O)[C@H](Cc1ccc(O)cc1)NC(=O)[C@H](CC(=O)O)NC(=O)[C@H](CO)NC(=O)[C@@H](NC(=O)[C@H](Cc1ccccc1)NC(=O)[C@@H](NC(=O)CNC(=O)[C@H](Cc1c[nH]cn1)NC(=O)[C@H](C)NC(=O)[C@@H](N)Cc1c[nH]cn1)[C@@H](C)O)[C@@H](C)O)C(=O)N[C@@H](C)C(=O)N[C@@H](C)C(=O)N[C@@H](Cc1c[nH]cn1)C(=O)N[C@@H](CC(=O)O)C(=O)N[C@@H](Cc1ccccc1)C(=O)N[C@H](C(=O)N[C@@H](CCC(=O)O)C(=O)N[C@@H](Cc1c[nH]c2ccccc12)C(=O)N[C@@H](CC(C)C)C(=O)N[C@@H](CC(C)C)C(=O)N[C@@H](CO)C(=O)N[C@@H](C)C(N)=O)C(C)C)C(=O)O [Compound 6] (H-HAHGTFTSDYSKYLDSK([γGlu-Palmitoyl])AAHDFVEWLLSA-NH2)
3,0.58,CCCCCCCCCCCCCCCC(=O)N[C@@H](CCC(=O)NCCCC[C@H](NC(=O)[C@H](CO)NC(=O)[C@H](CC(=O)O)NC(=O)[C@H](CC(C)C)NC(=O)[C@H](Cc1ccc(O)cc1)NC(=O)[C@H](CCCCN)NC(=O)[C@H](CO)NC(=O)[C@H](Cc1ccc(O)cc1)NC(=O)[C@H](CC(=O)O)NC(=O)[C@H](CO)NC(=O)[C@@H](NC(=O)[C@H](Cc1ccccc1)NC(=O)[C@@H](NC(=O)CNC(=O)[C@H](Cc1c[nH]cn1)NC(=O)[C@@H](C)NC(=O)[C@@H](N)Cc1c[nH]cn1)[C@@H](C)O)[C@@H](C)O)C(=O)N[C@@H](C)C(=O)N[C@@H](C)C(=O)N[C@@H](Cc1c[nH]cn1)C(=O)N[C@@H](CC(=O)O)C(=O)N[C@@H](Cc1ccccc1)C(=O)N[C@H](C(=O)N[C@@H](CCC(=O)O)C(=O)N[C@@H](Cc1c[nH]c2ccccc12)C(=O)N[C@@H](CC(C)C)C(=O)N[C@@H](CC(C)C)C(=O)N[C@@H](CO)C(=O)N[C@@H](C)C(N)=O)C(C)C)C(=O)O [Compound 7] (H-H[dA]HGTFTSDYSKYLDSK([γGlu-Palmitoyl])AAHDFVEWLLSA-NH2)
4,0.13,CCCCCCCCCCCCCCCC(=O)N[C@@H](CCC(=O)NCCCC[C@H](NC(=O)[C@H](CO)NC(=O)[C@H](CC(=O)O)NC(=O)[C@H](CC(C)C)NC(=O)[C@H](Cc1ccc(O)cc1)NC(=O)[C@H](CCCCN)NC(=O)[C@H](CO)NC(=O)[C@H](Cc1ccc(O)cc1)NC(=O)[C@H](CC(=O)O)NC(=O)[C@H](CO)NC(=O)[C@@H](NC(=O)[C@H](Cc1ccccc1)NC(=O)[C@@H](NC(=O)CNC(=O)[C@H](Cc1c[nH]cn1)NC(=O)C1(NC(=O)[C@@H](N)Cc2c[nH]cn2)CC1)[C@@H](C)O)[C@@H](C)O)C(=O)N[C@@H](C)C(=O)N[C@@H](C)C(=O)N[C@@H](Cc1c[nH]cn1)C(=O)N[C@@H](CC(=O)O)C(=O)N[C@@H](Cc1ccccc1)C(=O)N[C@H](C(=O)N[C@@H](CCC(=O)O)C(=O)N[C@@H](Cc1c[nH]c2ccccc12)C(=O)N[C@@H](CC(C)C)C(=O)N[C@@H](CC(C)C)C(=O)N[C@@H](CO)C(=O)N[C@@H](C)C(N)=O)C(C)C)C(=O)O [Compound 8] (H-H[Ac3c]HGTFTSDYSKYLDSK([γGlu-Palmitoyl])AAHDFVEWLLSA-NH2)

# Same assay, conditions: cAMP formation, CHO cells expressing human GLP-1-R; read-out: EC50 hGLP-1R CHO-K1
row,EC50 [pM],SMILES
1,140,CCCCCCCCCCCCCCCC(=O)N[C@@H](CCC(=O)NCCCC[C@H](NC(=O)[C@H](CCC(=O)O)NC(=O)[C@H](CC(=O)O)NC(=O)[C@H](CC(C)C)NC(=O)[C@H](Cc1ccc(O)cc1)NC(=O)[C@H](CCCCN)NC(=O)[C@H](CO)NC(=O)[C@H](Cc1ccc(O)cc1)NC(=O)[C@H](CC(=O)O)NC(=O)[C@H](CO)NC(=O)[C@@H](NC(=O)[C@H](Cc1ccccc1)NC(=O)[C@@H](NC(=O)CNC(=O)[C@H](CCC(N)=O)NC(=O)[C@H](C)NC(=O)[C@@H](N)Cc1c[nH]cn1)[C@@H](C)O)[C@@H](C)O)C(=O)N[C@@H](C)C(=O)N[C@@H](C)C(=O)N[C@@H](CCCCN)C(=O)N[C@@H](CC(=O)O)C(=O)N[C@@H](Cc1ccccc1)C(=O)N[C@H](C(=O)N[C@@H](CCC(=O)O)C(=O)N[C@@H](Cc1c[nH]c2ccccc12)C(=O)N[C@@H](CC(C)C)C(=O)N[C@@H](CCC(=O)O)C(=O)N[C@@H](CO)C(=O)N[C@@H](C)C(N)=O)[C@@H](C)CC)C(=O)O [Compound 11]
2,140,CCCCCCCCCCCCCCCC(=O)N[C@@H](CCC(=O)NCCCC[C@H](NC(=O)[C@H](CCC(=O)O)NC(=O)[C@H](CC(=O)O)NC(=O)[C@H](CC(C)C)NC(=O)[C@H](Cc1ccc(O)cc1)NC(=O)[C@H](CCCCN)NC(=O)[C@H](CO)NC(=O)[C@H](Cc1ccc(O)cc1)NC(=O)[C@H](CC(=O)O)NC(=O)[C@H](CO)NC(=O)[C@@H](NC(=O)[C@H](Cc1ccccc1)NC(=O)[C@@H](NC(=O)CNC(=O)[C@H](CCC(N)=O)NC(=O)[C@@H](C)NC(=O)[C@@H](N)Cc1c[nH]cn1)[C@@H](C)O)[C@@H](C)O)C(=O)N[C@@H](C)C(=O)N[C@@H](C)C(=O)N[C@@H](CCCCN)C(=O)N[C@@H](CC(=O)O)C(=O)N[C@@H](Cc1ccccc1)C(=O)N[C@H](C(=O)N[C@@H](CCC(=O)O)C(=O)N[C@@H](Cc1c[nH]c2ccccc12)C(=O)N[C@@H](CC(C)C)C(=O)N[C@@H](CCC(=O)O)C(=O)N[C@@H](CO)C(=O)N[C@@H](C)C(N)=O)[C@@H](C)CC)C(=O)O [Compound 12]
